The source of these data is ChEMBL document CHEMBL3507680, “University of Dundee, Gates Library screen for HepG2 cell viability”.

This data set is described as follows: Human HepG2 cell viability assay in 384 well format. The settings on record: HepG2 cells, read-out: Inhibition. Format: toxicity, cell-based. Further details: dose 125 nL, time 70.5 hour; concentration not given beside the values.
As to `Cc1cccc(CS(=O)(=O)Cc2ccn(C)c(=O)c2)c1`, the cytotoxicity at 70.5 h was -12.8%. Take `COC(=O)C(NC(=O)c1ccc(NC2CC2)nc1)c1ccccc1` (centres undefined): the cytotoxicity at 70.5 h was -5.38%. For `N#Cc1ccc(Cn2cncn2)c(F)c1` the value was -12.7%; for `COc1ccc(CNCCc2cccc(C(N)=O)c2)cc1O`, -6.24%. With `O=C(NC1CCc2nccn2C1)c1ccc(NC2CC2)nc1` (centres undefined), the cytotoxicity at 70.5 h is -12%. For `CC(CCc1cccn1C)NC(=O)Nc1cccn(C)c1=O` (centres undefined), the cytotoxicity at 70.5 h is -10.4%. With `Cc1ccc(S(=O)(=O)N(C)Cc2cnccn2)cc1N(C)C`, the cytotoxicity at 70.5 h is -1.07%.

Take `O=C(CNc1nc(C2CC2)ns1)N1CCc2sccc2C1`: the cytotoxicity at 70.5 h is -10.8%. For `O=C(c1ccc[nH]1)N1CCN(C(c2ccccc2)C(F)(F)F)CC1` (centres undefined) the value was -7.16%; for `O=C(Cc1ccon1)N(CCC(F)(F)F)C1CCCC1`, -3.19%; for `O=C(Cc1cccc(F)c1F)NS(=O)(=O)c1cncc(Cl)c1`, -2.5%. As for `CC(C)C(C)NC(=O)Nc1cccn(C)c1=O` (centres undefined), the cytotoxicity at 70.5 h was 4.29%. `Cc1cc(F)ccc1N1CCCC(NS(=O)(=O)CCCF)C1=O` (centres undefined): the cytotoxicity at 70.5 h was -6.3%. Take `CCS(=O)(=O)NC1CCCN(c2cc(C)ccc2F)C1=O` (centres undefined): the cytotoxicity at 70.5 h was -1.61%. As for `COc1ccccc1CC(C)N(C)S(C)(=O)=O` (centres undefined), the cytotoxicity at 70.5 h is -6.61%.

`CNS(=O)(=O)Cc1cccc(CNCc2ccsc2)c1`: the cytotoxicity at 70.5 h is -8.06%. Turning to `CCC(=O)N(C)Cc1cccc(OC(C)C)c1`, the cytotoxicity at 70.5 h was -5.79%.

With `CSc1cccc(NC(=O)CCC(=O)Nc2nccs2)c1`, the cytotoxicity at 70.5 h worked out at 14.4%. Regarding `Cn1cc(NC(=O)c2cccc(-n3cnnn3)c2)cn1`, the cytotoxicity at 70.5 h is -13.6%. For the molecule `N#CC1(C(=O)N2CCOC(c3ccc(Cl)cc3)C2)CCCC1` (centres undefined), the cytotoxicity at 70.5 h is -15.9%. For the molecule `Cc1cc(C)c(S(N)(=O)=O)cc1C(=O)NCCN1CCCCC1`, the cytotoxicity at 70.5 h is -16.1%. Regarding `CN(Cc1ccc(F)cc1)C(=O)c1ccoc1CN1CCNC(=O)C1`, the cytotoxicity at 70.5 h is -18.2%. Turning to `COc1ccccc1CCNC(=O)NCC(=O)Nc1cccnc1`, the cytotoxicity at 70.5 h was -0.968%. Under `CCC(=O)Nc1nnc2n(Cc3cccc(OC)c3)[nH]c(C)c1-2` stands -0.289%. Regarding `CC(C)(C)CNC(=O)c1ccc(C(=O)O)cn1`, the cytotoxicity at 70.5 h was 23.3%. On to `COc1ccccc1CC(C)(C)C(=O)NCC(=O)Nc1cccnc1`, for which the cytotoxicity at 70.5 h was determined as 3.9%. As for `CSCC(=O)NC1(c2cccc(Cl)c2)CC1`, the cytotoxicity at 70.5 h is -3.77%.

For the molecule `NC(=O)CSCC(=O)NC1(c2cccc(Cl)c2)CC1`, the cytotoxicity at 70.5 h came to 2.26%. For the molecule `CC(C)c1nc(C2CCCN2C(=O)c2cc(Cl)c[nH]2)no1` (centres undefined), the cytotoxicity at 70.5 h was -2.12%. Regarding `N#Cc1ccc(S(=O)(=O)NC(=O)C2CC(c3ccccc3)=NO2)cc1` (centres undefined), the cytotoxicity at 70.5 h is -12.1%.

As to `O=C(Cc1ccc(F)cc1F)NCC(=O)Nc1ccccn1`, the cytotoxicity at 70.5 h was -5.81%. Take `CC(C)n1nnnc1-c1ccc(NC(=O)CCC(F)(F)F)cc1F`: the cytotoxicity at 70.5 h is -18%. For the molecule `CSC(C)C(=O)Nc1ccnn1-c1ccccc1C` (centres undefined), the cytotoxicity at 70.5 h is 31.2%.

With `O=C(NCC(O)c1cccc(F)c1)c1sccc1OC(F)F` (centres undefined), the cytotoxicity at 70.5 h is -3.42%.

As for `CCc1nc(Cn2cncc(Br)c2=O)no1`, the cytotoxicity at 70.5 h was -8.84%.

With `CN1CCC(N(Cc2ccco2)S(=O)(=O)c2ccc(Br)cc2Cl)CC1`, the cytotoxicity at 70.5 h stood at 1.77%. On to `CN1CCC(N(Cc2ccco2)S(=O)(=O)c2cc(Br)ccc2Br)CC1`, for which the cytotoxicity at 70.5 h is 1.03%. Under `CN1CCC(N(Cc2ccco2)S(=O)(=O)c2ccc(Cl)cc2)CC1` stands -3.29%; under `Cc1ccc(OCC(=O)NS(=O)(=O)Cc2ccccc2)cc1`, -5.22%. Regarding `Cc1nnc(NCCc2coc(-c3ccc(F)cc3)n2)c(C#N)c1C`, the cytotoxicity at 70.5 h is -13.9%. As to `O=C(Nc1ccc(-c2ccccc2)cn1)C1CCN(C(=O)C2CC2)CC1`, the cytotoxicity at 70.5 h was -1.82%. Take `Cc1ccc(-c2noc(CNCC3CN(C)CCO3)n2)cc1F` (centres undefined): the cytotoxicity at 70.5 h is -5.24%. For `Cc1ccc2oc(N3CCN(CC(=O)NC(C)C)CC3)nc2c1` the value was 10.6%; for `Cc1cc(C)n(CC2CCCN2Cc2cccc(C#N)c2)n1` (centres undefined), -3.89%.

With `Cc1ccc(CN(C)C(=O)NCC(C)(C)NS(C)(=O)=O)s1`, the cytotoxicity at 70.5 h is -3.9%. Under `CC(=O)c1cccc(OCC(=O)N(CC(C)C)C2CCN(C)CC2)c1` stands 10.2%; under `CC(C)CC(C)(CNC(=O)c1cnccn1)NC(=O)c1cnccn1` (centres undefined), -0.237%. Take `O[C@@H]1CN(Cc2cc(Cl)cc3cccnc23)C[C@@H]1O`: the cytotoxicity at 70.5 h was -4.72%.

For `Cc1ncc(S(=O)(=O)Nc2ccnn2C(C)C)[nH]1`, the cytotoxicity at 70.5 h was determined as 3.96%.

In the case of `COC(C)c1cccc(NCc2ccsc2)c1` (centres undefined), the cytotoxicity at 70.5 h was -2.9%. Under `CC(C)(CNC(=O)C1(c2cccc(Br)c2)CCOCC1)C(=O)O` stands -0.158%; under `O=C(NCC(O)c1cccs1)c1sccc1OC(F)F` (centres undefined), -3.63%; under `CCc1ncc2c(n1)CN(CC1CCCCO1)CC2` (centres undefined), 8.28%. For `Cc1cc(C2CCCN(C(=O)COc3ccc(F)cc3F)C2)n[nH]1` (centres undefined) the value was -4.95%. Turning to `CCOC(=O)N(C)C1CCN(Cc2ccsc2)CC1`, the cytotoxicity at 70.5 h came to 19.3%. With `CN(CCOc1ccc(C#N)cc1)CC1CC1`, the cytotoxicity at 70.5 h was determined as 3.53%.

Take `O=C(CCn1ccnn1)N1CCCC(n2cncn2)C1` (centres undefined): the cytotoxicity at 70.5 h is -6.6%.

Consider `CC1CN(C)CCN1C(=O)Cc1cc(Cl)c2c(c1)OCCO2` (centres undefined), for which the cytotoxicity at 70.5 h is -6.51%. Take `COc1c(C2CCCN2CC(=O)Nc2nccs2)c(C)nn1C` (centres undefined): the cytotoxicity at 70.5 h is -2.85%.

As to `COc1cccc(CCC(=O)Nc2cnc3c(c2)c(C)nn3C)c1OC`, the cytotoxicity at 70.5 h was -14.1%.

Consider `Cc1noc(CNc2cc3c(cc2Cl)NC(=O)CO3)n1`, for which the cytotoxicity at 70.5 h is -10.2%. Under `COC1CCN(c2ccc(F)cc2CN(C)S(C)(=O)=O)CC1` stands -8.29%; under `COC1CCN(c2ccc(F)cc2CN(C)CC(N)=O)CC1`, -4.87%; under `Cc1cc2n(n1)CC(CNCc1cc(C)on1)CN2` (centres undefined), -9.53%. Turning to `CCOc1ccc2cc(C(=O)NCCNc3ccc(C)nn3)[nH]c2c1`, the cytotoxicity at 70.5 h is -8.09%.

For the molecule `Cc1cc(C)n(CC2CCN(CC(O)COc3ccccc3)CC2)n1` (centres undefined), the cytotoxicity at 70.5 h was -6.54%. With `CCc1nnc2n1CCN(C(=O)C(C)Oc1ccc(C#N)cc1)C2` (centres undefined), the cytotoxicity at 70.5 h is -10.1%. Under `CC(C)(C)c1nc(CNc2cc3c(cc2Cl)NC(=O)CO3)no1` stands -7.93%; under `CCN(CC)C(=O)CS(=O)(=O)c1cc(OC)c(OC)cc1C`, -9.5%. For `COCCNC(=O)N1CCN(c2cc(F)ccc2F)CC1` the value was -10.1%. In the case of `Cc1nc(NC(=O)C(C)N(C)Cc2ccc3c(c2)OCO3)sc1C` (centres undefined), the cytotoxicity at 70.5 h was -5.16%. In the case of `CCS(=O)(=O)N1Cc2ccccc2CC1C(=O)OCc1cc(C)no1` (centres undefined), the cytotoxicity at 70.5 h is -7.63%. `CCC(C)C(=O)N(C)Cc1cc(F)ccc1N1CCC(OC)CC1` (centres undefined): the cytotoxicity at 70.5 h was -10.5%.

In the case of `CC1COCCN1C(=O)Cc1cc(Cl)c2c(c1)OCCO2` (centres undefined), the cytotoxicity at 70.5 h is -12.3%. On to `Cc1cc(C2CCCN(Cc3nc(Cc4ccccc4)no3)C2)n[nH]1` (centres undefined), for which the cytotoxicity at 70.5 h was -10.9%.

On to `O=C(CCn1ccnc1)N1CCCC(n2cncn2)C1` (centres undefined), for which the cytotoxicity at 70.5 h is 10.1%. As to `O=C(CCCn1cccn1)N1CCCC(n2cncn2)C1` (centres undefined), the cytotoxicity at 70.5 h worked out at 1.52%. `COc1ccc(OC)c(CNCc2c(C)nc3sc(C)cn23)c1`: the cytotoxicity at 70.5 h was found to be 16.5%. For `O=C(c1ccc(CN2CC(n3cccn3)C2)cc1)N1CCCC1`, the cytotoxicity at 70.5 h was -0.354%. Turning to `CNC(=O)c1ccc(CN(C)c2ccc(C(F)(F)F)cn2)cc1`, the cytotoxicity at 70.5 h was 6.65%. Take `Cc1ccccc1C1(C(=O)N2CCOC(C)C2)CCOCC1` (centres undefined): the cytotoxicity at 70.5 h was -5.13%. Under `COCCCNC(=O)c1c[nH]c2ccc(OC)cc12` stands -1.45%. Turning to `COC(=O)CCNC(=O)c1c[nH]cc1-c1cccc(OC)c1`, the cytotoxicity at 70.5 h turned out to be 3.36%. Turning to `COC(=O)C(C)CN(Cc1ccccc1)C(=O)CN1CCCNC1=O` (centres undefined), the cytotoxicity at 70.5 h is -0.248%.

Take `COc1c(NS(=O)(=O)c2ccc(F)c(C)c2)c(C)nn1C`: the cytotoxicity at 70.5 h was found to be 0.334%. Take `Cc1cc(NC(=O)CCCn2ccnc2C)nc(C(C)C)n1`: the cytotoxicity at 70.5 h came to 0.794%. With `CNC(=O)c1cccnc1NCCOc1ccccc1`, the cytotoxicity at 70.5 h was -0.952%. Consider `O=C1CN(C(=O)CSC2CCCc3ccccc32)CCN1` (centres undefined), for which the cytotoxicity at 70.5 h was determined as 5.33%. For `CC(C)n1nc2c(cc1=O)CN(c1nc3ccccc3s1)CC2`, the cytotoxicity at 70.5 h was 3.31%. For the molecule `c1ccc2nc(N3CCCCC3)c(NCc3nnc4n3CCC4)nc2c1`, the cytotoxicity at 70.5 h was -8.39%. As for `Fc1ccc(C2(NCc3ccccc3)CCOCC2)cc1`, the cytotoxicity at 70.5 h is -3.51%. For `Cc1cc(CN(C)Cc2csc(-c3ccc(C(C)C)cc3)n2)no1` the value was 14.4%. On to `Cc1cccc(C)c1NC(=O)CNC(C)Cc1ccsc1` (centres undefined), for which the cytotoxicity at 70.5 h came to 32.9%. With `CCn1cc(CNc2ccc(Br)c(OC)c2)cn1`, the cytotoxicity at 70.5 h amounted to 4.22%. Regarding `N#Cc1ncn(CCS(=O)(=O)c2ccccc2)n1`, the cytotoxicity at 70.5 h is -16.8%. In the case of `CNC(=O)CCS(=O)(=O)Cc1nnnn1-c1ccccc1`, the cytotoxicity at 70.5 h was -3.85%. In the case of `CCn1cnnc1CNC(=O)NCC(C(C)C)N1CCOCC1` (centres undefined), the cytotoxicity at 70.5 h was -13%. Under `CCn1cnnc1CNC(=O)NCC(C(C)C)N1CCC(C)CC1` (centres undefined) stands 10.3%.

In the case of `Cc1nc(CSc2ccc(C(F)(F)F)cn2)no1`, the cytotoxicity at 70.5 h is -9.49%. Regarding `Cc1cc(NC(=O)NCc2ccc(S(=O)(=O)N3CCCC3)s2)no1`, the cytotoxicity at 70.5 h is -7.64%. For `CCn1cnnc1CNC(=O)NCC(C)(CC)N1CCOCC1` (centres undefined), the cytotoxicity at 70.5 h was -9.65%. Under `CCn1cnnc1CNC(=O)N(C)Cc1ccccc1OC` stands -4%. Consider `CCS(=O)(=O)Cc1nnnn1-c1ccccc1`, for which the cytotoxicity at 70.5 h is -8.76%. Regarding `CCOCC(=O)Nc1ccc(N2CCSCC2)cc1C`, the cytotoxicity at 70.5 h was -7.62%.
